We go through two molecules from patent US10488416B2, “Targeting breast cancer therapy based on stromal subtypes and CD146 composition” (The Regents of the University of Colorado, a Body Corporate, priority 2014, dated 2019).

The test has as its system MCF7 cells. Nature of the test: MCF7 invasion scratch wound assay through Matrigel in CAF conditioned media. The class given is cell-based, human. The following applies: for effect on CD146neg CAF induced invasion: MCF7 in CD146neg CAF conditioned media.

`COc1cc2ncnc(Nc3ccc(F)c(Cl)c3)c2cc1OCCCN1CCOCC1` [gefitinib]: the “effect on CD146neg CAF induced invasion” value is recorded as “successfully blocked”. The “effect on CD146neg CAF induced invasion” value (listed as gefitibib) is given as “inhibited”.

B1: HBEGF: HBEGF added to CD146pos CAF conditioned media in the invasion assay (protein, UniProt Q99075 63-148, looked up)
Heparin-binding EGF-like …: DLQEADLDLLRVTLSSKPQALATPNKEEHGKRKKKGKGLGKKRDPCLRKYKDFCIHGECKYVKELRAPSCICHPGYHGERCHGLSL
As for B1, the effect on invasion result (MCF7 in CD146pos CAF conditioned media) is reported as “stimulated”.
